# Results taken from PubChem BioAssay AID1996.
# Conditions: buffer; pH 7.4; 200.0 µM
row,SMILES,solubility kinetic [µg/mL]
1,O=C(OCC(=O)N1CCCC1)c1cc(=O)c2ccccc2o1,> 45.2
2,CC(=O)Cc1nsc(NC(=O)c2ccc(F)cc2)n1,> 41.9
3,Cc1ccc(C(=O)Nc2nc(-c3ccccn3)cs2)o1,37.1
4,Cc1ccc(OCCOC(=O)c2c(-c3ccccc3)noc2C)cc1,< 0.7
5,Cc1nc(NC(=O)c2cnccn2)ccc1Br,7.8
6,O=C(COC(=O)C1CC1)NCCc1ccccc1,> 37.1
7,O=C(CC1SC(N2CCOCC2)=NC1=O)Nc1ccc(Cl)c(C(F)(F)F)c1 (stereo not given),4.4
8,CCc1nccn1S(=O)(=O)c1cc(OC)ccc1OC,32.9
9,COc1ccccc1-c1nc(=S)c(C(C)=O)c(C)[nH]1,> 41.2
10,CC(=O)c1ccc(S(=O)(=O)N2CCCc3ccccc32)cc1,24.5
11,Cc1ccc(NC(=O)c2cccs2)cc1[N+](=O)[O-],2.4
12,COC(=O)[C@H](Cc1ccccc1)NC(=O)N(C)Cc1ccccc1,> 49
13,Cc1ccc(NC(=O)C/C(N)=N/O)cc1Cl,> 36.3
14,CCOC(=O)c1sc(Nc2ccc(OCC)cc2)nc1C,0.9
15,Cc1[nH]c(=O)c(C#N)c(C)c1[N+](=O)[O-],27.3
16,COc1ccc2[nH]c(=O)c(CN(C)C(=O)c3cccs3)cc2c1,12.4
17,O=[N+]([O-])c1ccccc1S(=O)(=O)N1CCN(c2ccccn2)CC1,4.1
18,COc1ccc(OCC(O)CN2CCOCC2)cc1 (stereo not given),40.1
19,Cc1ccc(N2CC(C(=O)Nc3cccnc3)CC2=O)cc1C (stereo not given),31.3
20,O=C(O)C1=C(C(=O)Nc2cc(C(F)(F)F)ccc2Cl)CCCC1,12.5
21,Cc1nc2ccccc2n1CCc1ccccc1,30.1
22,Nc1ccc(C(=O)[O-])cc1.[K+],24.1
23,O=[N+]([O-])c1cccc(N2Cc3ccccc3C2)c1,7.9
24,CCC(=O)N(CCc1ccccc1)Cc1cc2cccc(C)c2[nH]c1=O,2.3

row,SMILES,solubility kinetic [µg/mL]
1,Cc1ccc(C(=O)N2C3=C(CCCC3)C(=O)NC23CCCCC3)cc1,2.1
2,Clc1nc(N2CCOCC2)ncc1Br,> 41.8
3,CC1(C)CC(=O)C=C(NNC(=O)c2cccnc2)C1,> 38.9
4,C=CCN(c1ccccc1)S(=O)(=O)c1c(C)[nH]c(=O)[nH]c1=O,> 48.2
5,O=C(NCCNc1ccc([N+](=O)[O-])cc1)c1cccs1,6.7
6,Cc1ccc(C(=O)/C=C/c2ccc3ncccc3c2)cc1,1
7,O=C(CN1C(=O)NC2(CCCCC2)C1=O)N1CCc2ccccc2C1,> 51.2
8,CCN(C(=O)Cn1c([N+](=O)[O-])cnc1C)c1ccccc1,> 43.2
9,O=C1NC(=O)c2cc3ccccc3cc21,10.6
10,Nc1ccc(C(=O)[O-])cc1.O.[Na+],> 26.6
11,COc1cc(N2CCCC2)ccc1C=O,29
12,CN(Cc1ccccc1)C(=O)COC(=O)COc1ccc(C#N)cc1,> 50.8
13,CCc1ccc2oc(C(=O)Nc3nonc3CC)c(C)c2c1,< 0.2
14,O=C(c1ccc(N2C(=O)c3ccccc3C2=O)cc1)N1CCCCC1,> 50.2
15,COc1cc(C(C)=O)ccc1OCC(=O)NC(=O)Nc1ccc(C)cc1C,14.1
16,Cc1nc(NC(=O)CCl)sc1C(=O)N(C)C,> 39.3
17,CCC(C)[C@H](NC(=O)NCCC1=CCCCC1)C(=O)O (stereo not given in full),38.2
18,Cc1ccc(NC(=O)CN2CCCC2c2cccn2C)c(Br)c1 (stereo not given),11.4
19,COc1ccc(C(=O)N2CCN(Cc3nc(CC4CC4)no3)CC2)cc1,> 53.5
20,Cc1ccnc(NC(=O)CC(c2ccccc2)c2ccccc2)n1,35.7
21,CN(C)C(=S)Nc1ccc(Br)c(Cl)c1,37
22,CNS(=O)(=O)c1cccc(C(=O)OC2CCOC2=O)c1 (stereo not given),> 44.9
23,CN1CCN(C(=O)c2cc3ccccc3[nH]2)CC1,> 36.5
24,O=C(Nc1c(Cl)ccc2nsnc12)c1ccc([N+](=O)[O-])o1,> 48.7

row,SMILES,solubility kinetic [µg/mL]
1,Cc1nc2ccc(NS(=O)(=O)c3ccc(F)c(F)c3F)cc2s1,50.7
2,CC1(C)CC(=O)c2cnc(NC(=O)CSC(=S)N3CCCCC3)nc2C1,2.9
3,COc1ccc2cc(C(C)C(=O)N3CCC(C(N)=O)CC3)ccc2c1 (stereo not given),> 51.1
4,COc1ccccc1C(=O)NCC(=O)N1CCN(C/C=C/c2ccccc2)CC1,> 59
5,CN1CCN(Cc2cn(C)c3ccccc23)CC1CCO (stereo not given),32.3
6,CCOC(=O)C(CC(=O)O)NCc1ccco1 (stereo not given),34.3
7,C=CCc1c(C)c(C#N)c2nc3ccccc3n2c1N1CCCCC1,< 0.2
8,CCCCCCOc1ccc(C(CC(=O)NC)C(=O)O)cc1 (stereo not given),> 46.1
9,COc1cccc(OC)c1C(=O)NC(=O)Nc1c(C)cccc1C,5.2
10,CN(Cc1ccc(F)cc1)C(=O)c1ccc2c(c1)NC(=O)CS2,> 49.6
11,O=C(Nc1ccc(Oc2ccsc2C(=O)O)cc1)c1ccccc1,> 50.9
12,Cc1cc(NC(=O)C(C)Oc2ccc(Cl)cc2Cl)no1 (stereo not given),9.1
13,COc1cc(S(=O)(=O)N2CCn3cccc3C2C)ccc1NC(C)=O (stereo not given),> 54.5
14,O=C(CN1CCN(c2ccccn2)CC1)Nc1ccc(F)c(F)c1,> 49.9
15,C=CCN(C(=O)CN1CCCCC1)c1nc(-c2ccccc2)cs1,2.4
16,Cn1c(-c2cccs2)nc2ccccc21,30.4
17,Fc1ccccc1CN1CCN(c2ccc(Cl)cc2)CC1,1
18,CN1CCN(C(=O)C23CC4CC(C)(CC(C)(C4)C2)C3)CC1.Cl,47.8
19,O=C(Nc1cccc(NC(=O)c2cccnc2)c1)c1ccccc1,21.9
20,Cc1ccc(C)n1CCN1CCN(C(=O)c2ccc(Cl)cc2)CC1,36.3
21,Cc1ccccc1-n1c2nc(=O)n(C)c(=O)c-2cc2ccccc21,> 47.6
22,O=C(COc1ccc2ccc(=O)oc2c1)NCc1ccccn1,> 46.5
23,CN(CC(=O)Nc1ccc(F)cc1[N+](=O)[O-])Cc1ccccc1,1
24,O=C(Nc1cccc(F)c1)C1CCN(C(=O)c2ccco2)CC1,44.4

row,SMILES,solubility kinetic [µg/mL]
1,NC(=O)NC(=O)CN1C(=O)NC2(CCOc3ccccc32)C1=O (stereo not given),> 47.7
2,CC(C)(C)n1cnnc1Sc1ccc([N+](=O)[O-])cn1,> 41.9
3,Cc1ccc(C(CNC(=O)c2ccco2)N2CCN(C)CC2)cc1 (stereo not given),> 49.1
4,COc1ccc(S(=O)(=O)NC2CCCC2)cc1C(N)=O,> 44.8
5,COC(=O)CNc1nc(Cl)nc(NC2CCCCC2)n1,27.7
6,Cn1ccnc1SCC(=O)Nc1nc2c(F)c(F)c(F)cc2s1,0.6
7,CC(C)C(=O)N1CC(=O)Nc2ccc(F)cc2C1c1ccc(F)cc1 (stereo not given),> 51.7
8,Cn1c(SCC(=O)Nc2ccc(Cl)cc2)nc(O)cc1=O,> 48.9
9,O=C(Nc1ccc(F)cc1)c1ccc2[nH]c(=O)c(=O)[nH]c2c1,> 44.9
10,COC(=O)c1ccc(CNC(=O)C23CC4CC(CC(C4)C2)C3)cc1,6.2
11,CC1(C)CN=C(Nc2ccc(F)c(Cl)c2)S1,0.8
12,CNc1ccc(/C=C2\CSc3ccccc3C2=O)cc1[N+](=O)[O-],3
13,Cc1ccc(S(=O)(=O)CCc2nc3ccccc3[nH]2)cc1,> 45.1
14,O=C(c1ccc(F)cc1)c1ccc(OCC(=O)N2CCOCC2)cc1,> 51.5
15,CCOC(=O)COc1ccc2c(c1)c(C(C)=O)c(C)n2Cc1ccccc1,6.9
16,Cc1cc(C)c(-c2c(O)c3cccnc3n(C)c2=O)c(C)c1,43.4
17,CC(=O)Nc1ccc(NC(=O)c2c(C)noc2C)cc1,> 41
18,O=C(COC(=O)c1cccc(F)c1)Nc1cccnc1Cl,41.7
19,Cc1ccccc1C(=O)Nc1ccc2c(c1)OCCO2,> 40.4
20,CCc1ccccc1N1CN(Cc2ccco2)CNC1=S,> 45.2
21,CCN1CCN(CC(=O)c2cc(Cl)ccc2Cl)CC1,> 45.2
22,COc1ccc(CCNC(=O)c2cc(C)oc2C)cc1,> 41
23,N#Cc1c(N2CCOCC2)nsc1-c1ccccc1,1.6
24,Cc1cc(C)c(C)c(S(=O)(=O)N2CCN(C(=O)c3ccco3)CC2)c1C,4.1

row,SMILES,solubility kinetic [µg/mL]
1,Cc1ccc(Oc2ncccc2C(=O)NCC(=O)O)cc1,42.7
2,O=C(NC1=NCCS1)c1cc(Cl)ccc1Cl,37.1
3,COC(=O)CSc1nc(NC(C)(C)C)nc(N(C)C)n1,38.7
4,Clc1ccccc1OCCCCN1CCCCC1,39.9
5,CCN(CC)C(=S)SC1CCCCN(C(=O)c2ccc(F)cc2)C1=O (stereo not given),5.2
6,O=C(OCC(=O)c1ccc[nH]1)c1ccc(F)c(S(=O)(=O)N2CCOCC2)c1,7.8
7,N#Cc1c(Cl)nsc1NCCN1CCOCC1,> 40.9
8,CCOc1cc(S(=O)(=O)NCC2CCCO2)ccc1F (stereo not given),> 45.5
9,CC1(c2ccc([N+](=O)[O-])cc2)Nc2ccccc2S1 (stereo not given),12.1
10,Cc1cc2c(NC3CCCCC3)ncnc2s1.Cl,15
11,COC(=O)c1cnc(SCC(=O)c2ccccc2)n1C,> 43.6
12,O=C(Nc1ccccc1F)c1cc(Cl)sc1Cl,5.2
13,O=C(Nc1ccccc1C(=O)NCCCN1CCOCC1)c1ccc(F)cc1F,59.6
14,CCCCN1C(=O)C(C)=C(C)C1OCCc1ccc(OC)c(OC)c1 (stereo not given),50.5
15,CCc1ccccc1NC(=O)N1CCc2ccccc21,6.1
16,COc1ccc(-n2c(C)nc3ccccc3c2=O)c([N+](=O)[O-])c1,39.4
17,Brc1ccc(OCCCCN2CCCCC2)cc1,40.7
18,O=C(NCCC(=O)N1CCN(c2ccccn2)CC1)c1ccc([N+](=O)[O-])cc1,> 57.5
19,COc1ccc(-c2cc(C(=O)N3CCCCC3)c3ccccc3n2)cc1,33.5
20,O=C(CCN1C(=O)c2cccc([N+](=O)[O-])c2C1=O)NC1CCCCCC1,> 53.9
21,Cn1cccc1C(=O)OCC(=O)N1CC(=O)Nc2ccccc21,45.1
22,O=C(Cc1cccc2ccccc12)NCCc1ccccc1,7.1
23,COCCCNS(=O)(=O)c1cc2c3c(c1)C(C)C(=O)N3CCC2 (stereo not given),> 50.8
24,CC(C)C(NC(=O)c1ccc(F)cc1)C(=O)N1CCC1 (stereo not given),> 41.7
